Measured values as given in patent US20230382934A1, “HIGH ENTROPY OXIDES AND METHODS OF SYNTHESIS AND USE THEREOF” (Auburn University, priority 2022, published 2023).
Each block holds one compound with its values, some of them ahead of it.

How the values were obtained:
[1] = cited from earlier work; for log KML of the Mn(II) complex: other reported Mn(II)-binding ligands
[2] = Stability of Fe(III) complexes by potentiometric pH titration (log KML); type: physicochemical; conditions: 25° C.
Procedure: (§1) The aqueous speciation of H4qp4 was previously determined. Those for its Fe(II) and Fe(III) complexes were assessed using a METROHM 765 Dosimat with a jacketed, airtight glass titration vessel. A Fisher Scientific Accumet Research AR15 pH meter was used to monitor the pH of the sample solutions during the titrations. The electrode was calibrated before each titration using commercially available standard solutions buffered to pH 4.0, 7.0, and 10.0. All samples were purged with argon prior to analysis and subsequently analyzed under an argon atmosphere at 25° C. to prevent carbonate contamination. All solution samples were prepared in solutions of 100 mM KCl in deionized Millipore water. The titrations investigating metal-ligand speciation were run with solutions that contained a 1:1 molar mixture of the ligand and FeCl2·(4H2O). Carbonate-free solutions of 0.10 M KOH and 0.10 M HCl were prepared using argon-saturated deionized Millipore water. The titration data were analyzed and fit to speciation models using the Hyperquad2006 program.

[3] = Metal ion exchange with Fe(II) followed by UV/vis; type: physicochemical; conditions: Example 1, MeCN, by 15 h
Procedure: FIG. 18, comprising FIG. 18A and FIG. 18B, depicts representative spectrophotometric spectra. FIG. 18A depicts spectrophotometric analysis of the reaction between 0.1 mM Fe(ClO4)2 and 0.1 mM 1 in MeCN at 298 K. The UV/vis spectra of the product formed from 0.1 mM Fe(ClO4)2 and 0.1 mM H4qp4 (blue) and that corresponding to 0.1 mM 1 are provided for comparison. FIG. 18B depicts spectrophotometric analysis of the reaction between 0.1 mM Fe(OTf)2 and 0.1 mM 1 in aqueous solutions containing 50 mM HEPES buffered to pH 7.00 at 298 K. The UV/vis spectrum of the product formed from 0.1 mM Fe(OTf)2 and 0.1 mM H4qp4 (blue) and that corresponding to 0.1 mM 1 are provided for comparison.

[4] = cited from earlier work; for increase of relaxivity upon oxidation by excess H2O2: recently reported sensors
[5] = T1-weighted relaxivity, 3 T clinical MRI scanner; conditions: Example 1, measured independently
From the text: All MRI data were collected at the Auburn University MRI Research Center on a Siemens Verio open-bore 3-T MRI clinical scanner. A 15-channel knee coil was used to simultaneously image 12-15 samples. The imaging procedure was identical to those used for similar studies (Zhang, Q. et al., 2011, Inorg. Chem. 50, 9365; Yu, M. et al., 2014, J. Am. Chem. Soc., 136:12836; Yu, M. et al., 2017, Inorg. Chem., 56:2812; Yu, M. et al., 2012, Inorg. Chem. 51:9153). An inversion recovery (IR) sequence was used that featured a non-selective adiabatic inversion pulse followed by a slice-selective gradient recalled echo (GRE) readout after a delay period corresponding to the inversion time (TI) (Bernstein, M. A. et al., 2004, Handbook of MRI Pulse Sequences; Haacke, E. M. et al., 1999, Magnetic Resonance Imaging: Physical Principles and Sequence Design). The GRE was a saturation readout, such that only one line of k-space was acquired per repetition time (TR), in order to maximize both signal strength and the accuracy of the T1 estimates. […]
Image analysis was performed using custom Matlab programs (Mathworks, Natick, MA). The initial TI=4.8 ms image was used as a baseline to determine circular region of interest (ROI) boundaries for each sample; from these, the mean pixel magnitudes for each ROI were calculated. […]

[6] = Stability of Fe(II) complexes by potentiometric pH titration (log KML); type: physicochemical; conditions: 25° C.
Procedure: as §1

Compound: O=C(O)CN(CC(=O)O)C1CCCCC1N(CC(=O)O)Cc1ccccn1 (centres unmarked) [PyC3A^3−]
- log KML of the Mn(II) complex [1]: 14.14

Compound: NCCN1CCN(CC(=O)O)Cc2cccc(n2)CN(CC(=O)O)CC1 [PC2A-EA^2−]
- log KML of the Mn(II) complex [1]: 19.01

- log KML [2]: 38.84
- Mn(II) displaced by an equimolar amount of Fe(II) [3]: approximately 10%
Compound: CC#N.O=S(=O)([O-])C(F)(F)F.O=S(=O)([O-])C(F)(F)F.Oc1ccc(O)c(CN(CCN(Cc2ccccn2)Cc2ccccn2)Cc2ccccn2)c1.[Mn+2] [Complex 2]
- pMn ([1]; pH 7.4, 1.0 mM Mn(II) and ligand, previously characterized complexes): 7.25
- increase of relaxivity upon oxidation by excess H2O2 [4]: 10%

Compound: O=C(O)CN1CCN(CC(=O)O)CCN(CC(=O)O)CCN(CC(=O)O)CC1 [DOTA^4−]
- log KML of the Mn(II) complex [1]: 19.89

Compound: Oc1ccc(O)c(CN(CCN(Cc2ccccn2)Cc2cc(O)ccc2O)Cc2ccccn2)c1.[Br-].[Br-].[Mn+2] [Complex 3]
- increase of relaxivity upon oxidation by excess H2O2 [4]: 30%

Compound: O=C([O-])CN(CC(=O)[O-])C1CCCCC1N(CC(=O)[O-])Cc1ccccn1.[Fe+2] (centres unmarked) [Fe(II)-PyC3A]
- increase in relaxivity on oxidation to Fe(III) ([4]; 1.4 T): 10 fold

Compound: O.O.O.O.O.O.[Mn+2] [[Mn(H2O)6]^2+]
- T1-weighted relaxivity [5]: 5.26 mM^−1 s^−

- log KML [6]: 27.16
Compound: (1-(2,5-dihydroxybenzyl)-8-(2,5-dihydroxybenzylalkoxide)-1,4,8,11-tetraazacyclotetradecane)iron(II) triflate [Complex 1]
